From patent publication US20220073536A1 (Rigel Pharmaceuticals, Inc., priority 2003, published 2022)
“And” between values parts separate entries of the source, which are not always exact repeats. Equal entries are not always repeated.

Tests used:
[1] = system: cultured human mast cells (CHMC); experiment: CHMC low cell density IgE activation: tryptase assay; type: cell-based; conditions: Homo sapiens, Mast cell, IgE activation
Outline: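 CHMC were seeded at 1000–1500 cells/well in MT buffer and incubated 1 hr at 37 °C. They were then stimulated with anti-IgE for 30 min at 37 °C, with unstimulated wells as controls. Released tryptase in the supernatant was measured with a fluorogenic substrate after 30 min at room temperature.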

[2] = system: cultured human mast cells (CHMC); experiment: CHMC low cell density ionomycin activation: tryptase assay; type: cell-based; conditions: Homo sapiens, Mast cell, 3 pt, read-out: LD Tryptase, CHMC, Iono, 3 pt
[3] = system: C57BL/6 mice; experiment: Mouse cutaneous Reverse Passive Arthus (RPA) reaction, edema; type: in vivo
Excerpt: Immune complex (IC)-mediated acute inflammatory tissue injury is implicated in a variety of human autoimmune diseases, including vasculitis syndrome, sick serum syndrome, systemic lupus erythematosus (SLE), rheumatoid arthritis, Goodpasture's syndrome, and glomerulonephritis. The classical experimental model for IC-mediated tissue injury is the reverse passive Arthus reaction. The RPA reaction model is a convenient in vivo method to study localized inflammation, induced by ICs, without systemic effects. Intradermal injection of antibodies (Abs) specific to chicken egg albumin (rabbit anti-OVA IgG), followed by intravenous (IV) injection of antigens (Ags), specifically chicken egg albumin (ovalbumin, OVA), causes perivascular deposition of ICs and a rapid inflammatory response characterized by edema, neutrophil infiltration and hemorrhage at the injection sites. Aspects of the mouse RPA reaction model resemble the inflammatory response of patients with rheumatoid arthritis, SLE and glomerulonephritis.
(§1) In this model system, test compounds are administered at several timepoints prior to administration of Abs and Ags. A solution of rabbit anti-OVA IgG ([…] in 25 μl/mouse) is injected intradermally, and immediately following is an intravenous injection of chicken egg albumin (20 mg/kg of body weight) in a solution containing 1% Evans blue dye. The degree of edema and hemorrhage is measured in the dorsal skin of C57BL/6 mice using the Evan's Blue dye as an indicator of local tissue damage. Purified polyclonal rabbit IgG is used as a control.
Pretreatment time, in which the test compounds are administered prior to Ab/Ag challenge, depends on the pharmacokinetic (PK) properties of each individual compound. Four hours after induction of Arthus reaction, mice are euthanized, and tissues are harvested for assessment of edema. This model system allows us to rapidly screen the in vivo activity of many inhibitors.
(§2) All compounds tested were administered by the oral route.

[4] = Plasma concentration in the mouse RPA reaction study; type: in vivo
Protocol: as §1
Pretreatment time, in which the test compounds are administered prior to Ab/Ag challenge, depends on the pharmacokinetic (PK) properties of each individual compound. Four hours after induction of Arthus reaction, mice are euthanized, and tissues are harvested for assessment of edema.
as §2

[5] = molecular target: T1, Syk kinase (Homo sapiens, UniProt P43405); experiment: Syk kinase biochemical fluorescence polarization assay; conditions: isolated Syk kinase, 11 pt, read-out: fp_syk, 11 pt
T1 construct: purchased Upstate, Lake Placid N.Y
Protocol: Many of the 2,4-pyrimidinediamine compounds were tested for the ability to inhibit Syk kinase catalyzed phosphorylation of a peptide substrate in a biochemical fluorescenced polarization assay with isolated Syk kinase. In this experiment, Compounds were diluted to 1% DMSO in kinase buffer (20 mM HEPES, pH 7.4, 5 mM MgCl2, 2 mM MnCl2, 1 mM DTT, 0.1 mg/mL acetylated Bovine Gamma Globulin). Compound in 1% DMSO (0.2% DMSO final) was mixed with ATP/substrate solution at room temperature. Syk kinase (Upstate, Lake Placid N.Y.) was added to a final reaction volume of 20 uL, and the reaction was incubated for 30 minutes at room temperature. […] EDTA (10 mM final)/anti-phosphotyrosine antibody (1× final)/fluorescent phosphopeptide tracer (0.5× final) was added in FP Dilution Buffer to stop the reaction for a total volume of 40 uL according to manufacturer's instructions (PanVera Corporation) The plate was incubated for 30 minutes in the dark at room temperature. Plates were read on a Polarion fluorescence polarization plate reader (Tecan). Data were converted to amount of phosphopeptide present using a calibration curve generated by competition with the phosphopeptide competitor provided in the Tyrosine Kinase Assay Kit, Green (PanVera Corporation).

[6] = 0.1 mg/kg oral, pretreatment time 0.5 hrs
[7] = 0.5 mg/kg oral, pretreatment time 0.5 hrs
[8] = 1 mg/kg oral, pretreatment time 0.5 hrs
[9] = 5 mg/kg oral, pretreatment time 0.5 hrs
[10] = low cell density, 3 pt, read-out: LD Tryptase, CHMC, IgE, 3 pt
[11] = low cell density, 8 pt, read-out: LD Tryptase, CHMC, IgE, 8 pt
[12] = oral, dosage 0.5, pretreatment 5
[13] = oral, printed in dosage position 0.5, in pretreatment position 15
[14] = low cell density CHMC, tryptase, 3 pt, read-out: LD Tryptase, CHMC, IgE, 3 pt
[15] = low cell density CHMC, tryptase

SMILES: Cc1nc2ccc(Nc3ncc(F)c(Nc4ccc5c(c4)NC(=O)C(C)(C)O5)n3)cc2[nH]1 [Compound 810, N4-(2,2-Dimethyl-3-oxo-4H-benz[1,4]oxazin-6-yl)-5-fluoro-N2-(2-methyl-3H-benzimidazol-5-yl)-2,4-pyrimidinediamine]
- IC50 ([1]; low cell density CHMC, tryptase release, 3 pt, read-out: LD Tryptase, CHMC, IgE, 3 pt): < 10 µM
- IC50 ([1]; low cell density CHMC, tryptase release, 8 pt, read-out: LD Tryptase, CHMC, IgE, 8 pt): < 10 µM
- IC50 ([2]; low cell density CHMC, tryptase release): > 10 µM
- % inhibition to vehicle control Edema Size ± SEM [3, 6]: 69.5 ± 19.6%
- % inhibition to vehicle control Edema Size ± SEM [3, 7]: 60.9 ± 9.6%
- % inhibition to vehicle control Edema Size ± SEM [3, 8]: 81.3% and 81.3 ± 8.4%
- % inhibition to vehicle control Edema Size ± SEM [3, 9]: 92.1 ± 3.1%

SMILES: Cn1c(N2CCOCC2)nc2cc(Nc3ncc(F)c(Nc4ccc5c(c4)NC(=O)C(C)(C)O5)n3)ccc21 [Compound 944, N4-(2,2-Dimethyl-3-oxo-4H-benz[1,4]oxazin-6-yl)-5-fluoro-N2-[1-methyl-2-(4-morpholino)benzimidazol-5-yl]-2,4-pyrimidinediamine]
- IC50 [1, 10]: < 10 µM
- IC50 [1, 11]: < 10 µM
- % inhibition to vehicle control Edema Size ± SEM ([3]; 2 mg/kg oral, pretreatment time 1 hr): 39.3 ± 13.8%
- % inhibition to vehicle control Edema Size ± SEM ([3]; 5 mg/kg oral, pretreatment time 1 hr): 48.4 ± 12.0%
- % inhibition to vehicle control Edema Size ± SEM ([3]; 15 mg/kg oral, pretreatment time 1 hr): 56.1 ± 9.2%
- % inhibition to vehicle control Edema Size ± SEM [3, 12]: −16.0 ± 17.3%
- % inhibition to vehicle control Edema Size ± SEM [3, 13]: 8.3 ± 13.4%
- Exposure = Pretreatment Time + 4 hours Plasma Concentration ± SEM [4, 12]: 3.4 ± 9.1 ng/mL
- Satellite: At time of challenge Plasma Concentration ± SEM [4, 12]: 22.1 ± 52.4 ng/mL
- Exposure = Pretreatment Time + 4 hours Plasma Concentration ± SEM [4, 13]: 85.1 ± 161.9 ng/mL
- Satellite: At time of challenge Plasma Concentration ± SEM [4, 13]: 1074.0 ± 492.3 ng/mL

SMILES: COc1c(C)cc(Nc2ncc(F)c(Nc3ccc4c(c3)NC(=O)C(C)(C)O4)n2)cc1Cl.Cc1ccc(S(=O)(=O)O)cc1 [Compound 994, N2-(3-Chloro-4-methoxy-5-methylphenyl)-N4-(2,2-dimethyl-3-oxo-4H-benz[1,4]oxazin-6-yl)-5-fluoro-2,4-pyrimidinediamine p-Toluenesulfonic Acid Salt]
- IC50 ([1]; CHMC, read-out: in vitro Potency (CHMC IgE)): 0.047 µM
- IC50 [1, 10]: < 10 µM
- IC50 [1, 11]: < 10 µM
- IC50 ([2]; low cell density): < 10 µM
- % inhibition to vehicle control Edema Size ± SEM ([3]; 100 mg/kg oral, 90 minutes prior to Ab/Ag challenge (pretreatment cell of table empty), C57BL/6 mice): 75% and 75.0 ± 6.2%

SMILES: COc1cc(Nc2ncc(F)c(Nc3ccc4c(n3)NC(=O)C(C)(C)O4)n2)cc(OC)c1OC [Compound 1007, N4-(2,2-Dimethyl-3-oxo-4H-5-pyrid[1,4]oxazin-6-yl)-5-fluoro-N2-(3,4,5-trimethoxyphenyl)-2,4-pyrimidinediamine]
- % inhibition to vehicle control Edema Size ± SEM [3, 6]: 64.3% and 64.3 ± 11.2%
- % inhibition to vehicle control Edema Size ± SEM [3, 7]: 78.7% and 78.7 ± 6.3%
- % inhibition to vehicle control Edema Size ± SEM [3, 8]: 89.4 ± 2.2% and 98.1 ± 0.8%
- % inhibition to vehicle control Edema Size ± SEM ([3]; 3 mg/kg oral, pretreatment time 0.5 hrs): 86.3 ± 7.9%
- % inhibition to vehicle control Edema Size ± SEM [3, 9]: 99.8% and 99.8 ± 0.2%
- % inhibition to vehicle control Edema Size ± SEM ([3]; 10 mg/kg oral, pretreatment time 0.5 hrs): 97.8 ± 1.1%
- % inhibition to vehicle control Edema Size ± SEM ([3]; 30 mg/kg oral, pretreatment time 0.5 hrs): 88.2 ± 5.7%
- Exposure = Pretreatment Time + 4 hours Plasma Concentration ± SEM [4, 6]: BLQ
- Exposure = Pretreatment Time + 4 hours Plasma Concentration ± SEM [4, 7]: BLQ

SMILES: CN1CCN(c2ccc(Nc3ncc(F)c(NC4CCCCC4)n3)cc2)CC1 [Compound 1164, N4-Cyclohexyl-5-fluoro-N2-[4-(4-methylpiperazino)phenyl]-2,4-pyrimidinediamine]
- IC50 [1, 14]: < 10 µM
- IC50 [2, 15]: > 10 µM
- IC50 [5]: < 10 µM

SMILES: O=C(Nc1ccc(Nc2ncc(F)c(NC3CCCCC3)n2)cc1)c1ccccc1 [Compound 1174, N2-(4-Benzamidophenyl)-N4-cyclohexyl-5-fluoro-2,4-pyrimidinediamine]
- IC50 [1, 14]: > 10 µM
- IC50 ([1]; low cell density CHMC, tryptase, 8 pt, read-out: LD Tryptase, CHMC, IgE, 8 pt): < 10 µM
- IC50 [2, 15]: > 10 µM
- IC50 [5]: < 10 µM
